Laboratory results reported in US20150328109A1, “DERMAL COMPOSITIONS CONTAINING UNNATURAL HYGROSCOPIC AMINO ACIDS” (MEDPHARM LIMITED, priority 2012, published 2015).

Experiments:
[1] = tested on: RHE tissues; test: RHE irritation assessment Method 2: Mattek's MTT effective time (ET-50) assay; format: cell-based, human; conditions: for ET-50 (exposure time to reduce viability to 50% of the control): 1% w/v N-H-G in water, dosing periods 2, 6 and 24 h
Excerpt: Method 1 was used to investigate the potential for alpha-hydroxylglycine (α-H-G) and L-homoserine (L-h-S) to cause skin irritation. The protocol is primarily designed and validated for single compounds rather than solutions. Therefore to provide further insight into the potential of N-hydroxyserine and N-hydroxylglycine to cause skin irritation a second protocol was investigated using Mattek's MTT effective time (ET-50) assay which is designed to test mixtures of compounds. In addition two commercially available amino acid related compound (L-serine and glycine) were selected and tested as comparators for N-hydroxyserine and N-hydroxylglycine. […] As a general guideline, the following groupings can be used in assigning expected in vivo irritancy responses based on the ET-50 results obtained: The irritation assessment of the solutions was performed using the protocol described below. Each of the test solutions; […] Damaged tissues were discarded. • (iii) The tissue were transferred into the assay medium and incubated at 37° C., 5% CO2 until the application of the test solutions; […] The working MTT solution was prepared using the following procedure: • (i) MTT concentrate was removed from the freezer and allowed to thaw. The concentrate was diluted with the MTT diluent solution (1 mL of concentrate to 4 mL of MTT diluent solution). • (ii) MTT solution from Step (i) was centrifuged at a g-force of 300 for 5 min to remove any particulates. • (iii) The supernatant of the MTT solution from Step (ii) was stored in the dark at 4° C. for a maximum period of 24 h and used as required. […] The plates were incubated for 3 h (+/−5 min) at 37° C., 5% CO2 and 95% humidified atmosphere. • (vi) The treated tissues were subsequently transferred into a new plate filled with 1 mL of extractant solution. • (vii) The plates were sealed using Parafilm® to stop evaporation and protected from light using foil before extract at 2-8° C. to minimise evaporation. • (viii) Following extraction the RHE tissue were removed from the wells and an additional 1 mL of extractant solution was added. Using a pipette the extraction solution was mixed and made visually homogenous. • (ix) The solution from Step (viii) was transferred in to n=3 wells (200 μL per well) using an automatic pipette of a 96 well plate and the optical density was measured at a wavelength of 570 nm.

[2] = tested on: Normal RHE tissue; test: Tissue viability (MTT) of normal RHE tissue during 6 day treatment; format: cell-based, human; conditions: 10% w/v, n = 1
Description: In this investigation two types of RHE tissues were used, which were healthy and psoriatic tissue sourced from the MatTek Corporation (Ashland, Mass.). For simplicity the protocol below refers to both tissue types as RHE tissues and all media as assay medium as both tissues were treated in the same manner. The only exception was that two different types of media were required for the different types of tissue (healthy and psoriatic tissues).
• (i) At the end of the equilibration period, the media for each well was removed then the tissues were lifted and placed on culture stands and fresh pre-warmed (37° C.) assay medium (5 mL) was added to the well. • (ii) Using a positive displacement pipette, the test solutions 10% w/v, N-H-S(N-hydroxyserine) in water, […], N-H-G (N-hydroxyglycine) in water, 10% w/v, L-h-S (L-homoserine) in water and 10% w/v, combination 1:1:1 (N-H-S:N-H-G: L-h-S) in water were dispensed (50±0.5 μL) onto the top of the RHE tissue. The solutions or controls were then distributed over the surface of the RHE tissues using a sterile glass rod. • (iii) The lid was placed on the well plate containing the RHE tissue and the tissues were returned to the incubator (37° C., 5% CO2) 48 h between applications.
• (i) Every 48 h culture media for the RHE tissues was removed from the 6 well plates and transferred into tubes stored (−20° C.) for cytokine analysis. • (ii) Fresh pre-warmed (37° C.) assay medium (5 mL) was added to each tissue using an automatic pipette. • (iii) From each treatment 1 tissue was removed for viability assessment. • (iv) The RHE tissues were subsequently rinsed with 100 μL of PBS to remove the residual solution from the epidermal surface. • (v) Using a positive displacement pipette, the solutions 10% w/v, N-H-S in water, 1% w/v, N-H-G in water, 10% w/v, L-h-S in water and 10% w/v, combination 1:1:1 (N-H-S:N-H-G:L-h-S) were dispensed (50±0.5 μL) onto the top of the RHE tissue. The solutions or controls were then distributed over the surface of the RHE tissues using a sterile glass rod. • (vi) The lid was placed on the well plate containing the RHE tissue and the tissues were returned to the incubator (37° C., 5% CO2) 48 h between applications at t=0, 48 and 96 h.
To determine the viability of the RHE tissue post application of the solutions and controls, the following procedure was used: • (i) The required wells in 24-well plates were filled with 300 μL MTT solution and protected from light. • (ii) The tissues were removed from the post treatment incubation plates and excess solutions and controls were removed with sterile cotton swabs. • (iii) The RHE tissue was subsequently rinsed with 1000 μL of PBS five times to remove the residual solution from the epidermal surface. • (iv) The tissue from Step (iii) was blotted dry with cotton swabs. • (v) The treated tissues from Step (iv) were transferred into wells in 24-well plates pre-filled with MTT solution (300 μL). The plates were incubated for 3 h (+/−5 min) at 37° C., 5% CO2 and 95% humidified atmosphere. • (vi) The treated tissues were subsequently transferred into a new plate filled with 1 mL of extractant solution. • (vii) The plates were sealed using Parafilm® to stop evaporation and protected from light using foil before extract at 2-8° C. to minimise evaporation. • (viii) Following extraction the RHE tissue were removed from the wells and an additional 1 mL of extractant solution was added. Using a pipette the extraction solution was mixed and made visually homogenous. • (ix) The solution from Step (viii) was transferred in to n=3 wells (200 μL per well) using an automatic pipette of a 96 well plate and the optical density was measured at a wavelength of 570 nm.

[3] = Snake study: water uptake into snake skin after treatment with amino acid solution; set-up: species or system Elaphe guttata, the American corn snake; conditions: 24 h treatment with 1.33M amino acid solution, dried, then 40% RH
Description: • All experiments were performed in triplicate (i.e. three separate solutions, three pieces of skin, one per solution). […] Each piece was weighed and placed directly into one the of the amino acid solutions, one piece of snake skin per solution. • After 1 hour, the snake skin was removed from the solution and blotted dry on filter paper. The weight of the snake skin was recorded before the same snake skin was returned to the amino acid solution. • After an additional 23 hours (24 hours in total), the snake skin was again blotted dry on filter paper and weighed. • The snake skin, now having absorbed the test amino acid, was then placed in a vacuum desiccator over silica (0% RH) for 48 hours before being weighed.
• A 10% w/w concentration solution of each compound is made by stirring the compound (100 mg) in water (1 mL). Three separate solutions of each compound are made separately so that the experiment can be carried out in triplicate simultaneously. […] The weight of the snake skin is recorded before the same snake skin is returned to the same compound solution. • After an additional 23 hours (24 hours in total), the snake skin is again blotted dry on filter paper and weighed. • The snake skin is then placed in a vacuum desiccator over silica (0% relative humidity (RH)) for 48 hours before being weighed. […]

SMILES | impact on the viability of the RHE tissues ([1]; dosing periods t=2, 6 and 24 h, 1% w/v N-H-G, 10% w/v L-Serine, 10% w/v Glycine) | Normal RHE tissue viability as a percentage of untreated control (%) ([2]; 2 days in treatments) | Normal RHE tissue viability as a percentage of untreated control (%) ([2]; 4 days in treatments) | Normal RHE tissue viability as a percentage of untreated control (%) ([2]; 6 days in treatments) | ET-50 (exposure time to reduce viability to 50% of the control) ([1]; 10% w/v N-H-S) [h] | ET-50 (exposure time to reduce viability to 50% of the control) ([1]; 10% w/v N-H-S, listed as N-H-S) [h] | expected in vivo irritancy from ET-50 ([1]; 10% w/v N-H-S, 1% w/v N-H-G, 10% w/v L-Serine, 10% w/v Glycine in water) | average percentage weight increase after 24 h at 40% RH [3]
O=C(O)CNO [N-hydroxyglycine, N-Hydroxyglycine] | no significant impact | 97.9 | 91.5 | 93.3 |  |  |  | 
O=C(O)[C@H](CO)NO [N-hydroxyserine] |  | 83.4 | 91.5 | 86.9 | 12 to 24 | 22.8 | very mild (12-24 very mild) | 
N[C@@H](CCO)C(=O)O [L-homoserine] |  |  |  |  |  |  |  | particularly advantageous properties
